Values quoted from earlier work in paper PMC12128972, “TYRA-300, an FGFR3-selective inhibitor, promotes bone growth in two FGFR3-driven models of chondrodysplasia” (JCI Insight, 2025).

Key:
[1] = tested on: Fgfr3^G374R mouse model of ACH; conditions: treatment initiated 1 day after birth; cited from earlier work
[2] = tested on: Fgfr3^Y367C/+ mouse model, which mimics the phenotype of ACH; set-up: method as in PMID 27064282, PMID 23200862; conditions: infigratinib 2 mg/kg, starting at 7 days of age for 10 days; cited from earlier work
[3] = tested on: growth plate chondrocytes of Fgfr3^Y367C/+ mice; conditions: previous studies; cited from earlier work
[4] = tested on: children with ACH; set-up: method as in earlier work; conditions: children with ACH aged 5-12 years, once daily s.c.; 95% CI 1.22-1.97; cited from earlier work

| Molecule | premature fusion of the intersphenoidal synchondrosis [1] | bone growth compared with vosoritide (800 μg/kg) [2] | type X collagen staining in the HZCs [3] | increase from baseline of average linear growth velocity greater than placebo [4] |
| --- | --- | --- | --- | --- |
| CCN1CCN(c2ccc(Nc3cc(N(C)C(=O)Nc4c(Cl)c(OC)cc(OC)c4Cl)ncn3)cc2)CC1 [infigratinib] | did not rescue premature fusion | more bone growth than vosoritide | partial restoration | – |
| vosoritide: C-natriuretic peptide (CNP) analog that is a once daily subcutaneous injection (PGQEHPNARKYKGANKKGLSKGCFGLKLDRIGSMSGLGC; chains of the INN, looked up) | – | – | partial restoration | 1.57 cm/year |
